Test results from patent US20220305132A1, “COMBINATION THERAPY COMPRISING AN ANTI-CD19 ANTIBODY DRUG CONJUGATE AND A PI3K INHIBITOR OR A SECONDARY AGENT” (ADC THERAPEUTICS SA, priority 2019, published 2022).

T1: CD19 (human, UniProt P15391 20-556)
T1 sequence (looked up): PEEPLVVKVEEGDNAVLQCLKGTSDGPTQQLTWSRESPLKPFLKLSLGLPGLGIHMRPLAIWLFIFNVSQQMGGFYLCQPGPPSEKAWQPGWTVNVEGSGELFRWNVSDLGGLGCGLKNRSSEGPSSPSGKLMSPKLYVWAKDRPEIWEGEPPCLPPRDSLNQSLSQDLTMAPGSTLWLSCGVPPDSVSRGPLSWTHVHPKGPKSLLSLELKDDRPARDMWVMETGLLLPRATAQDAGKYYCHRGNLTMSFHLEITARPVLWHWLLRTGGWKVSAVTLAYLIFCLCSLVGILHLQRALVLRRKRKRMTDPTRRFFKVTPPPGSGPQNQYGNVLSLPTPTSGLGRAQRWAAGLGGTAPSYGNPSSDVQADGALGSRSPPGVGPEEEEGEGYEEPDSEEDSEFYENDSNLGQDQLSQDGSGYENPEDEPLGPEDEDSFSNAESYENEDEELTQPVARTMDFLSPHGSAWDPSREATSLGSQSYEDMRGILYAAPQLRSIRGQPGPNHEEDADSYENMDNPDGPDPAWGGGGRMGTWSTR


What was measured:
[1] = tested on: myelodysplastic syndromes (MDS) patients; conditions: cited from earlier work
[2] = biological target: T1, CD19; assay: cell-based or functional assay
[3] = patients with a del(5q) chromosomal abnormality

Median IC50, MTT proliferation assay, 96 h exposure, 48 B-cell lymphoma lines [2]	Molecule	Adverse events ([1]; MDS patients)	transfusion independence or a reduction of at least 50% of pre-treatment RBC transfusion levels ([1]; non-del(5q) patients with confirmed low- and intermediate-1 risk)	complete cytogenetic remission [1, 3]	minor cytogenetic remission [1, 3]	red blood cell (RBC) transfusion independence [1, 3]
–	Nc1cccc2c1CN(C1CCC(=O)NC1=O)C2=O (racemic) [Lenalidomide, 3-(7-amino-3-oxo-1H-isoindol-2-yl)piperidine-2,6-dione]	neutropenia and thrombocytopenia, pruritus, rash, diarrhea	43 % of patients	45 % of patients	28%	67 % of patients
4 pM	ADCx19 (antibody, V domains shown) VH: QVQLVQPGAEVVKPGASVKLSCKTSGYTFTSNWMHWVKQAPGQGLEWIGEIDPSDSYTNYNQNFQGKAKLTVDKSTSTAYMEVSSLRSDDTAVYYCARGSNPYYYAMDYWGQGTSVTVS VL: EIVLTQSPAIMSASPGERVTMTCSASSGVNYMHWYQQKPGTSPRRWIYDTSKLASGVPARFSGSGSGTSYSLTISSMEPEDAATYYCHQRGSYTFGGGTKLEIK	–	–	–	–	–
